Source: patent US9980943B2, “Methods of treating muscular dystrophy” (BOARD OF REGENTS OF THE NEVADA SYSTEM OF HIGHER EDUCATION, …, priority 2013, dated 2018)

Experiments:
Format in all cases: cell-based, mouse
[1] = tested on: β-galactosidase in CMV-LacZ C2C12 myoblasts; assay: CMV-LacZ secondary screen in C2C12 myoblasts (β-Gal stabilizing assay); conditions: for CMV-LACZ in Myoblasts, value relative to DMSO: SU9516 analogs, C2C12 CMV-LacZ, N=2; for CMV-LACZ in Myoblasts (β-galactosidase activity relative to DMSO): CMV-LacZ C2C12 myoblasts
Summary of the method: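 β-gal stabilization was measured in C2C12 myoblasts or myotubes stably transfected with a CMV-driven LacZ construct, using the FDG β-gal assay. Compounds were tested in dose-response at 0.5, 1, 5, 10, 20 and 40 μM, with two replicates per point.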

[2] = tested on: α7 integrin (LacZ reporter in α7βgal+/− myoblasts); assay: Myoblast α7+/LacZ integrin FDG assay (Burkin assay in myoblasts, 96-well); conditions: 96-well; for Burkin Assay in Myoblasts, value relative to DMSO: SU9516 analogs, N=3-6; for Burkin Assay in Myoblasts, signal relative to DMSO: α7+/LacZ myoblasts
[3] = tested on: β-galactosidase in CMV-LacZ C2C12 myotubes; assay: CMV-LacZ secondary screen in C2C12 myotubes (β-Gal stabilizing assay); conditions: for CMV-LACZ in Myotubes, value relative to DMSO: SU9516 analogs, C2C12 CMV-LacZ, N=2; for CMV-LACZ in Myotubes, signal relative to DMSO: C2C12 CMV-LacZ myotubes, fold relative to DMSO
Summary of the method: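 Dose-response runs at 0.5–40 μM (0.5, 1, 5, 10, 20, 40 μM; N=2 per point) used a clonal C2C12 line carrying CMV-LacZ. Cells were assayed as myoblasts or as differentiated myotubes, and β-galactosidase levels were read with the FDG fluorogenic substrate.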

[4] = tested on: α7 integrin (LacZ reporter in α7+/LacZ myotubes); assay: Myotube α7 integrin FDG assay (Burkin assay in myotubes, 96-well); conditions: for Burkin Assay in Myotubes, value relative to DMSO: SU9516 analogs, 96-well, N=3-6

## Cc1cc(C)c(/C=C2\C(=O)Nc3ccccc32)[nH]1 [NCGC00094381-05]
[1]; 0.5 uM
  CMV-LACZ in Myoblasts, value relative to DMSO: 0.8383
[1]; 5 uM
  CMV-LACZ in Myoblasts, value relative to DMSO: 0.9614
[1]; 10 uM
  CMV-LACZ in Myoblasts, value relative to DMSO: 0.8606
[1]; 20 uM
  CMV-LACZ in Myoblasts, value relative to DMSO: 0.7147
[1]; 40 uM
  CMV-LACZ in Myoblasts, value relative to DMSO: 0.8220
[2]; 0.5 uM
  Burkin Assay in Myoblasts, value relative to DMSO: 0.9433
[2]; 1 uM
  Burkin Assay in Myoblasts, value relative to DMSO: 0.9804
[2]; 5 uM
  Burkin Assay in Myoblasts, value relative to DMSO: 0.7532
[2]; 10 uM
  Burkin Assay in Myoblasts, value relative to DMSO: 0.7145
[2]; 20 uM
  Burkin Assay in Myoblasts, value relative to DMSO: 0.8879
[2]; 40 uM
  Burkin Assay in Myoblasts, value relative to DMSO: 0.7578
[3]; 0.5 uM
  CMV-LACZ in Myotubes, value relative to DMSO: 1.0045
[3]; 1 uM
  CMV-LACZ in Myotubes, value relative to DMSO: 0.8773
[3]; 5 uM
  CMV-LACZ in Myotubes, value relative to DMSO: 1.2069
[3]; 10 uM
  CMV-LACZ in Myotubes, value relative to DMSO: 2.8305
[3]; 20 uM
  CMV-LACZ in Myotubes, value relative to DMSO: 6.8950
[3]; 40 uM
  CMV-LACZ in Myotubes, value relative to DMSO: 18.0610
[4]; 0.5 uM
  Burkin Assay in Myotubes, value relative to DMSO: 0.9234
[4]; 1 uM
  Burkin Assay in Myotubes, value relative to DMSO: 0.931
[4]; 5 uM
  Burkin Assay in Myotubes, value relative to DMSO: 1.047
[4]; 10 uM
  Burkin Assay in Myotubes, value relative to DMSO: 1.319
[4]; 20 uM
  Burkin Assay in Myotubes, value relative to DMSO: 1.05
[4]; 40 uM
  Burkin Assay in Myotubes, value relative to DMSO: 1.138

## COc1cccc(C(=O)COc2ccc3ccc(=O)oc3c2)c1 [MLS000677675-01]
[1]; 0.5 uM
  CMV-LACZ in Myoblasts (β-galactosidase activity relative to DMSO): 1.0343
[1]; 1 uM
  CMV-LACZ in Myoblasts (β-galactosidase activity relative to DMSO): 1.1214
[1]; 5 uM
  CMV-LACZ in Myoblasts (β-galactosidase activity relative to DMSO): 0.9905
[1]; 10 uM
  CMV-LACZ in Myoblasts (β-galactosidase activity relative to DMSO): 1.0373
[1]; 20 uM
  CMV-LACZ in Myoblasts (β-galactosidase activity relative to DMSO): 1.0763
[1]; 40 uM
  CMV-LACZ in Myoblasts (β-galactosidase activity relative to DMSO): 1.1578
[2]; 0.5 uM
  Burkin Assay in Myoblasts, signal relative to DMSO: 1.093
[2]; 1 uM
  Burkin Assay in Myoblasts, signal relative to DMSO: 1.061
[2]; 5 uM
  Burkin Assay in Myoblasts, signal relative to DMSO: 0.9873
[2]; 10 uM
  Burkin Assay in Myoblasts, signal relative to DMSO: 1.028
[2]; 20 uM
  Burkin Assay in Myoblasts, signal relative to DMSO: 1.004
[2]; 40 uM
  Burkin Assay in Myoblasts, signal relative to DMSO: 0.9554
[3]; 0.5 uM
  CMV-LACZ in Myotubes, signal relative to DMSO: 0.8619
[3]; 1 uM
  CMV-LACZ in Myotubes, signal relative to DMSO: 0.9962
[3]; 5 uM
  CMV-LACZ in Myotubes, signal relative to DMSO: 1.0578
[3]; 10 uM
  CMV-LACZ in Myotubes, signal relative to DMSO: 1.0091
[3]; 20 uM
  CMV-LACZ in Myotubes, signal relative to DMSO: 0.9918
[3]; 40 uM
  CMV-LACZ in Myotubes, signal relative to DMSO: 1.2494
[4]; 0.5 uM
  Burkin Assay in Myotubes, α7 integrin LacZ reporter signal relative to DMSO: 1.278
[4]; 1 uM
  Burkin Assay in Myotubes, α7 integrin LacZ reporter signal relative to DMSO: 1.205
[4]; 5 uM
  Burkin Assay in Myotubes, α7 integrin LacZ reporter signal relative to DMSO: 1.081
[4]; 10 uM
  Burkin Assay in Myotubes, α7 integrin LacZ reporter signal relative to DMSO: 1.044
[4]; 20 uM
  Burkin Assay in Myotubes, α7 integrin LacZ reporter signal relative to DMSO: 0.6675
[4]; 40 uM
  Burkin Assay in Myotubes, α7 integrin LacZ reporter signal relative to DMSO: 0.6873

## CC(C)c1ccc(NC(=O)CN2C(=O)c3ccccc3S2(=O)=O)cc1 [MLS001229477-01]
[1]; 0.5 uM
  CMV-LACZ in Myoblasts (β-galactosidase activity relative to DMSO): 1.0283
[1]; 1 uM
  CMV-LACZ in Myoblasts (β-galactosidase activity relative to DMSO): 1.1345
[1]; 5 uM
  CMV-LACZ in Myoblasts (β-galactosidase activity relative to DMSO): 1.1078
[1]; 10 uM
  CMV-LACZ in Myoblasts (β-galactosidase activity relative to DMSO): 1.1311
[1]; 20 uM
  CMV-LACZ in Myoblasts (β-galactosidase activity relative to DMSO): 1.0674
[1]; 40 uM
  CMV-LACZ in Myoblasts (β-galactosidase activity relative to DMSO): 0.8800
[2]; 0.5 uM
  Burkin Assay in Myoblasts, signal relative to DMSO: 0.8703
[2]; 1 uM
  Burkin Assay in Myoblasts, signal relative to DMSO: 0.8296
[2]; 5 uM
  Burkin Assay in Myoblasts, signal relative to DMSO: 1.367
[2]; 10 uM
  Burkin Assay in Myoblasts, signal relative to DMSO: 0.9454
[2]; 20 uM
  Burkin Assay in Myoblasts, signal relative to DMSO: 0.9634
[2]; 40 uM
  Burkin Assay in Myoblasts, signal relative to DMSO: 0.9019
[3]; 0.5 uM
  CMV-LACZ in Myotubes, signal relative to DMSO: 1.0126
[3]; 1 uM
  CMV-LACZ in Myotubes, signal relative to DMSO: 1.1095
[3]; 5 uM
  CMV-LACZ in Myotubes, signal relative to DMSO: 0.9250
[3]; 10 uM
  CMV-LACZ in Myotubes, signal relative to DMSO: 0.9587
[3]; 20 uM
  CMV-LACZ in Myotubes, signal relative to DMSO: 0.9622
[3]; 40 uM
  CMV-LACZ in Myotubes, signal relative to DMSO: 0.9611
[4]; 0.5 uM
  Burkin Assay in Myotubes, α7 integrin LacZ reporter signal relative to DMSO: 0.8015
[4]; 1 uM
  Burkin Assay in Myotubes, α7 integrin LacZ reporter signal relative to DMSO: 0.9368
[4]; 5 uM
  Burkin Assay in Myotubes, α7 integrin LacZ reporter signal relative to DMSO: 0.9702
[4]; 10 uM
  Burkin Assay in Myotubes, α7 integrin LacZ reporter signal relative to DMSO: 0.9015
[4]; 20 uM
  Burkin Assay in Myotubes, α7 integrin LacZ reporter signal relative to DMSO: 0.8376
[4]; 40 uM
  Burkin Assay in Myotubes, α7 integrin LacZ reporter signal relative to DMSO: 0.8339
